According to patent publication US9066948B2, “Oxadiazolo[3,2-a]pyrimidines and thiadiazolo[3,2-a]pyrimidines” (THE UNITED STATES OF AMERICA AS REPRESENTED BY THE …, priority 2010, dated 2015):
Where “and” joins values, the source holds several entries; their conditions need not be identical. Equal entries are not always repeated. Where two headings read alike, the source gives them in different places. Bridge positions count the residues as written; N and C are the ends. Square brackets hold non-standard residues; d marks the D form. Peptide text beside a SMILES is read from it. hArg = N=C(N)NCCCC[C@H](N)C(=O)O; Mpa = O=C(O)CCS

Key:
[1] = target: T1, HEK293 cells stably expressing normal human αVβ3 (Homo sapiens, UniProt P05106+P06756); test: αVβ3-mediated cell adhesion to vitronectin; format: cell-based; details: HEK293, n=4
T1 construct: expressed in transfected cells; host or cells: HEK293
T1 sequence (P06756 31-889 limits assumed): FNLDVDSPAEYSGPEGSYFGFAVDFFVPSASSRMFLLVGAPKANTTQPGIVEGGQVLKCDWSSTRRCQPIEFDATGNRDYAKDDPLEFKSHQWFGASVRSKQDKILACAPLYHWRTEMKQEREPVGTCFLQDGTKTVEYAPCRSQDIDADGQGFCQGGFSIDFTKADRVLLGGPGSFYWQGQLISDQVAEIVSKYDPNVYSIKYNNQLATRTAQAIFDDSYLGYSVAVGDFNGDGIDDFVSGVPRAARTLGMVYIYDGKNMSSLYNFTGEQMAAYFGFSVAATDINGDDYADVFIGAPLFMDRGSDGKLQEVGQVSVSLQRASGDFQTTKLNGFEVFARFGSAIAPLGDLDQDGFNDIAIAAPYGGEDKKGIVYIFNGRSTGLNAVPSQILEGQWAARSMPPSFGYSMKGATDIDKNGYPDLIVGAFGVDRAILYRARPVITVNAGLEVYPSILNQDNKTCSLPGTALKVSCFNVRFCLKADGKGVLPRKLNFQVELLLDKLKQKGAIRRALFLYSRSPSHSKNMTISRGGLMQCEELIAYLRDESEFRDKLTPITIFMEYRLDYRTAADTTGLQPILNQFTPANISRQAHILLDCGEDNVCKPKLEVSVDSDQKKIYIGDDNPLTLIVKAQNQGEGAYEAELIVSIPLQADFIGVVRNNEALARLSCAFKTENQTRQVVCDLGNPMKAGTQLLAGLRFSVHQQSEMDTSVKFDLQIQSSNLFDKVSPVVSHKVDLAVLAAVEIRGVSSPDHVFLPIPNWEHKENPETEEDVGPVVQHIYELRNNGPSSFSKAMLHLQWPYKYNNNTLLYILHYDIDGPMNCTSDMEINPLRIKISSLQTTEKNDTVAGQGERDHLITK
T1 sequence (P06756 891-1048 partner limits assumed): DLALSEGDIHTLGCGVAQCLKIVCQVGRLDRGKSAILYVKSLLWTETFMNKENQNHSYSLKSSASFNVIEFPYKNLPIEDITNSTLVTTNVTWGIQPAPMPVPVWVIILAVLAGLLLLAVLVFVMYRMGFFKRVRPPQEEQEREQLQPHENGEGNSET
T1 sequence (P05106 27-788): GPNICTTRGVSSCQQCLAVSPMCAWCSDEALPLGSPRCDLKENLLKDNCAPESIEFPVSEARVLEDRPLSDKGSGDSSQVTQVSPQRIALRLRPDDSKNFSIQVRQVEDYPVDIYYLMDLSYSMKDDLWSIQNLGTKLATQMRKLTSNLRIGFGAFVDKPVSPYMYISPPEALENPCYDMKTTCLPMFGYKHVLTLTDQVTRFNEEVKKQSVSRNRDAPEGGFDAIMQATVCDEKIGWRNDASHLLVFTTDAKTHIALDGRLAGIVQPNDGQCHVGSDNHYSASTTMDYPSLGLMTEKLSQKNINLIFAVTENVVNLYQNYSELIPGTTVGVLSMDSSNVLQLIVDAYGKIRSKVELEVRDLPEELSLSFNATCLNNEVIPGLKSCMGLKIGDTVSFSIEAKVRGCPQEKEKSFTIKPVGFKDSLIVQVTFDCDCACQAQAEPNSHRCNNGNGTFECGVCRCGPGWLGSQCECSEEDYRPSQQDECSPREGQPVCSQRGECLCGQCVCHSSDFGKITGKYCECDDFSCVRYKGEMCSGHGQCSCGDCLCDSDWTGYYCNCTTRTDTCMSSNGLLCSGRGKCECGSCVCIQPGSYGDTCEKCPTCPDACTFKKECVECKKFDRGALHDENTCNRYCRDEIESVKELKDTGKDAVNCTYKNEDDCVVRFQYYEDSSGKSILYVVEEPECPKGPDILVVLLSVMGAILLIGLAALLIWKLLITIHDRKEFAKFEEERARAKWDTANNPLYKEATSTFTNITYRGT
Procedure: Washed platelets are prepared as per the primary screening assay, suspended in HBMT containing 1 mM MgCl2 (platelet adhesion to collagen) or 2 mM CaCl2/1 mM MgCl2 (platelet adhesion to fibrinogen) and adjusted to a count of 250×10^9/L. HEK293 cells stably expressing normal human αVβ3 or normal human αIIbβ3 are suspended in HBMT containing either 1 mM MgCl2 (HEK293 cells expressing αVβ3 for adhesion to vitronectin) or 2 mM CaCl2/1 mM MgCl2 (HEK293 cells expressing αIIbβ3 for adhesion to fibrinogen); the cell counts are adjusted to 10^6/mL. Polystyrene 96-well microtiter plates (Nunc) are coated with either fibrinogen (50 μg/mL), vitronectin (5 μg/mL), or collagen (33 μg/mL, rat tail type 1; Becton Dickinson) for 1 hour, and blocked with HBMT for at least 1 hour. Platelets and cells are treated with the compound of Example 27 of the current invention or 2-ethyl-7-(piperazin-1-yl)-5H-[1,3,4]thiadiazolo-[3,2-a]pyrimidin-5-one of U.S. Ser. No. 12/514,286 in the presence or absence of anti-α2β1 mAb 6F1, anti-αIIbβ3 mAb 10E5, anti-αIIbβ3 mAb 10E5+αVβ3 mAb 7E3, αVβ3-specific mAb LM609, or anti-αVβ3+αIIbβ3 mAb 7E3, for 15 minutes at 37° C. before being added to the microtiter wells. After adhering for 1 hour at either 22° C. (platelets) or 37° C. (cells), nonadherent platelets or cells are removed by washing 3 times with HBMT containing the same ion composition as the buffer used for adhesion. […] In other experiments, 8-chambered glass coverslips (Nunc) are coated with collagen (33 μg/mL) for 1 hour at 22° C. Washed platelets are allowed to adhere for 1 hour at 22° C. and the coverslips are stained with the Alexa-488-conjugated β3-specific mAb 7H2. Adherent platelets are imaged using a Zeiss LSM-510 confocal system with Axiovert 200 microscope (Carl Zeiss, Heidelberg, Germany) using a Plan-Apochromat 100/1.4 NA oil DIC objective.

[2] = system: washed platelets; test: Effect of Mg2+ concentration on platelet adhesion to fibrinogen; format: cell-based, human; details: 1, 20, 50 mM Mg2+
Procedure: Washed platelets in buffers containing 1 mM Ca^2+ plus 1 mM, 20 mM, or 50 mM Mg^2+ are added to wells pre-coated with fibrinogen (50 μg/ml) for 60 min at 22° C. After washing, adherent platelets are detected by acid phosphatase activity. Results are expressed as mean±SD (n=3 for the compound of Example 27 of the current invention and 2-ethyl-7-(piperazin-1-yl)-5H-[1,3,4]thiadiazolo-[3,2-a]pyrimidin-5-one (a compound disclosed and claimed in U.S. Ser. No. 12/514,286); n=2 for tirofiban).

[3] = target: T2, purified αIIbβ3 (Homo sapiens, UniProt P05106+P08514); test: Extension of purified αIIbβ3 in nanodiscs by negative staining electron microscopy; details: for shift of nanodisc-integrin length (NIL) frequency distribution: 1 hour at room temperature, at highest doses majority of NIL values 18 to 23 nm
T2 construct: αIIbβ3 is purified from outdated single donor platelet concentrates obtained from the New York Blood Center; tissue New York Blood Center; host or cells: outdated single donor platelet concentrates
T2 sequence (P08514 32-887 limits assumed): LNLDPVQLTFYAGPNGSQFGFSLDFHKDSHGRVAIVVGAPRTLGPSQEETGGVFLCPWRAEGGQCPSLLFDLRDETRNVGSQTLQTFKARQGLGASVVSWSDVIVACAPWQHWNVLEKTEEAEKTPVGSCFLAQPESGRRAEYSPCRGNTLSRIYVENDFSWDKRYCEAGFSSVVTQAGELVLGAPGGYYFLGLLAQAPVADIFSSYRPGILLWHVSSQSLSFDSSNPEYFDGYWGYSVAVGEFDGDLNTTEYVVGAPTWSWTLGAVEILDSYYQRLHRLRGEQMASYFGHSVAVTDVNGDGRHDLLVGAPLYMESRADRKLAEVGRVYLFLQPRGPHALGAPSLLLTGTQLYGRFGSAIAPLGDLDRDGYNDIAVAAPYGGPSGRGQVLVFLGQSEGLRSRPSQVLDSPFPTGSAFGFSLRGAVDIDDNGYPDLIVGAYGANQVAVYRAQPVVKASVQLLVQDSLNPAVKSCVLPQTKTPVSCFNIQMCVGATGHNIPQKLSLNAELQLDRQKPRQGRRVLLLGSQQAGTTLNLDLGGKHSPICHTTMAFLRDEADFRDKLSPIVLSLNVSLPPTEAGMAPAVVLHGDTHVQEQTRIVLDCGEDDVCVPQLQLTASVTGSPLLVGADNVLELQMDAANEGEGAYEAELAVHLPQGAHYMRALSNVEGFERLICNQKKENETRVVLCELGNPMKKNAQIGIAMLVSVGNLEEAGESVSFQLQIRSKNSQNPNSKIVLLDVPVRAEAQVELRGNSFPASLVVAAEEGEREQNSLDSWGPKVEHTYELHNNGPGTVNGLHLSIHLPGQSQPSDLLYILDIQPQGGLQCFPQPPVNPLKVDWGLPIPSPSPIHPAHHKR
T2 sequence (P08514 891-1039 partner limits assumed): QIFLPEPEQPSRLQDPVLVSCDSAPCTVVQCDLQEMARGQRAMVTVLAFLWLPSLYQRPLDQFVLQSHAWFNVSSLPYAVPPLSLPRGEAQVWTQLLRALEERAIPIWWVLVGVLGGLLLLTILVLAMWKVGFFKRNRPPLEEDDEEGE
T2 sequence (P05106 27-788): as the sequence (P05106 27-788) above
Procedure: In brief, the His-tagged membrane scaffold protein is prepared as a recombinant protein in E. coli and purified by Nickel affinity chromatography and anion exchange chromatography. Final assembly consists of solubilizing an equimolar mixture of 1,2-dimyristoyl-sn-glycero-3-phosphocholine and 1,2-dimyristoyl-sn-glycero-3-phospho-(1′-rac-glycerol) in octylglucoside and cholate and then adding the purified αIIbβ3. The detergents are removed with macroporous polymeric beads (Bio-Bead SM-2) and then the αIIbβ3 nanodiscs are separated from the empty nanodiscs by gel filtration.
αIIbβ3 nanodiscs are treated with eptifibatide, tirofiban, 2-ethyl-7-(piperazin-1-yl)-5H-[1,3,4]thiadiazolo-[3,2-a]pyrimidin-5-one of U.S. Ser. No. 12/514,286, or the compound of Example 27 of the current invention for 1 hour at room temperature at concentrations up to 100 μM for 2-ethyl-7-(piperazin-1-yl)-5H-[1,3,4]thiadiazolo-[3,2-a]pyrimidin-5-one (a compound claimed in U.S. Ser. No. 12/514,286) and at concentrations up to 10 μM for 2-amino-N-(3-(5-oxo-7-(piperazin-1-yl)-5H-[1,3,4]thiadiazolo[3,2-a]pyrimidin-2-yl)phenyl)acetamide of Example 27. Samples are loaded onto carbon-coated copper grids that are glow-discharged by a carbon coating unit (Edwards; Crowley, UK), and then stained with 2% uranyl acetate, followed by drying. Imaging of αIIbβ3 nanodiscs is performed using a JOEL JEM 100CX transmission electron microscope (Jeol Ltd; Tokyo, Japan) at 80 kV and magnifications of 33,000× and 50,000×. Individual nanodiscs containing αIIbβ3 are manually selected for analysis using Image J (NIH, Bethesda, Md.). The distance from the bottom of the nanodisc to the height of the αIIbβ3 complex (nanodisc-integrin length; NIL) is measured as an indicator of integrin extension. The frequency distribution of NIL values is then analyzed for untreated αIIbβ3 nanodiscs and αIIbβ3 nanodiscs in the presence of different compounds.

[4] = system: platelets; test: Platelet adhesion assay: calcein-labeled platelets on fibrinogen-coated wells; format: cell-based; details: Homo sapiens, mean±SD
Procedure: Thirty microliters of human fibrinogen (50 μg/mL) in Tris/saline (100 mM NaCl, 50 mM Tris/HCl, pH 7.4; American Diagnostica, Stamford, Conn.) are added to black, clear-bottom, untreated polystyrene, nonsterile 384-well microtiter plate wells (Corning no. 3711; Acton, Mass.). […] An additional wash is performed using HBMT with 1 mM MgCl2 and 2 mM CaCl2. Calcein-labeled platelets (final concentration 1×10^11/L) are treated with selected Compounds of the Invention (final concentration of 100 μM, 30 μM, 10 μM or 1 μM) at 22° C. for 20 minutes. Thirty microliters of platelets are then added to the wells. After 1 hour of adhesion, wells are washed 3 times with HBMT-1 mM MgCl2/2 mM CaCl2 and the plates are read by a fluorescent microtiter plate reader (Envision; Perkin Elmer) to detect calcein fluorescence (490 nm excitation and 515 nm emission). Negative controls consist of wells containing platelets without compounds of the invention.

[5] = target: T3, αIIbβ3 (Homo sapiens, UniProt P05106+P08514); test: Induction of ligand-induced binding site (LIBS) epitopes, flow cytometry of washed platelets; format: cell-based; details: eptifibatide 10 μM = 100%, Example 27 at 100 μM
T3 construct: Washed platelets are prepared in HBMT containing 2 mM CaCl2/1 mM MgCl2; endogenous in cells; host or cells: washed platelets
T3 sequence (P08514 32-887 limits assumed): as the sequence (P08514 32-887 limits assumed) above
T3 sequence (P08514 891-1039 partner limits assumed): as the sequence (P08514 891-1039 partner limits assumed) above
T3 sequence (P05106 27-788): as the sequence (P05106 27-788) above
Procedure: Washed platelets are prepared in HBMT containing 2 mM CaCl2/1 mM MgCl2. […] Fluorescently labeled monoclonal antibodies (PMI-1, LIBS-1, AP5, or 10E5; Alexa-488 conjugated; Invitrogen) are then added (20 μL, final concentration: 5 μg/mL) and incubated for 30 minutes at 22° C. in the dark, after which samples are diluted 1:10 in HBMT with CaCl2/MgCl2 for analysis by flow cytometry (FACSCalibur; Becton Dickinson, Franklin Lakes, N.J.). Antibody binding is reported as the geometric mean fluorescence intensity; nonspecific binding is determined by adding a 50-fold excess of unlabeled antibody before adding the labeled antibody. The net normalized fluorescence intensity in the presence of eptifibatide (10 μM, 30 min incubation at 22° C.) is assigned the value of 100%

[6] = system: washed platelets; test: Effect of Mg2+ on washed platelet aggregation induced by thrombin receptor activating peptide (SFLLRN); format: cell-based, human; details: compound at 100 μM; SFLLRN 10 μM
Procedure: Washed platelets are resuspended in buffer containing fibrinogen (200 μg/ml) and 1 mM […] in combination with either 1 mM or 20 mM Mg^2+. Aggregation is induced by adding a thrombin receptor activating peptide (SFLLRN) at 10 μM.

[7] = system: platelets; test: Platelet aggregation assay: ADP-induced, platelet-rich plasma; format: cell-based, human; details: citrate anticoagulant, tested twice, read-out: IC50, ADP-induced platelet aggregation of citrated PRP
Procedure: […] After 30 seconds in the aggregometer (Kowa AF-10E; Tokyo, Japan) at 37° C. with stirring, ADP (5-20 μM) is added to induce aggregation and the light transmittance is measured for 8 minutes. The initial slopes of aggregation in the presence of different concentrations of the Compound being tested are used to generate an IC50.

[8] = target: T4, HEK293 cells stably expressing normal human αIIbβ3 (Homo sapiens, UniProt P05106+P08514); test: αIIbβ3-mediated cell adhesion to fibrinogen; format: cell-based; details: same concentration as αVβ3 experiments (100 μM), n=4
T4 construct: expressed in transfected cells; host or cells: HEK293
T4 sequence (P08514 32-887 limits assumed): as the sequence (P08514 32-887 limits assumed) above
T4 sequence (P08514 891-1039 partner limits assumed): as the sequence (P08514 891-1039 partner limits assumed) above
T4 sequence (P05106 27-788): as the sequence (P05106 27-788) above
Procedure: Washed platelets are prepared as per the primary screening assay, suspended in HBMT containing 1 mM MgCl2 (platelet adhesion to collagen) or 2 mM CaCl2/1 mM MgCl2 (platelet adhesion to fibrinogen) and adjusted to a count of 250×10^9/L. HEK293 cells stably expressing normal human αVβ3 or normal human αIIbβ3 are suspended in HBMT containing either 1 mM MgCl2 (HEK293 cells expressing αVβ3 for adhesion to vitronectin) or 2 mM CaCl2/1 mM MgCl2 (HEK293 cells expressing αIIbβ3 for adhesion to fibrinogen); the cell counts are adjusted to 10^6/mL. Polystyrene 96-well microtiter plates (Nunc) are coated with either fibrinogen (50 μg/mL), vitronectin (5 μg/mL), or collagen (33 μg/mL, rat tail type 1; Becton Dickinson) for 1 hour, and blocked with HBMT for at least 1 hour. Platelets and cells are treated with the compound of Example 27 of the current invention or 2-ethyl-7-(piperazin-1-yl)-5H-[1,3,4]thiadiazolo-[3,2-a]pyrimidin-5-one of U.S. Ser. No. 12/514,286 in the presence or absence of anti-α2β1 mAb 6F1, anti-αIIbβ3 mAb 10E5, anti-αIIbβ3 mAb 10E5+αVβ3 mAb 7E3, αVβ3-specific mAb LM609, or anti-αVβ3+αIIbβ3 mAb 7E3, for 15 minutes at 37° C. before being added to the microtiter wells. After adhering for 1 hour at either 22° C. (platelets) or 37° C. […]

NCC(=O)Nc1cccc(-c2nn3c(=O)cc(N4CCNCC4)nc3s2)c1 [2-amino-N-(3-(5-oxo-7-(piperazin-1-yl)-5H-[1,3,4]thiadiazolo[3,2-a]pyrimidin-2-yl)phenyl)acetamide]
inhibition at 10 µM ([1]; 10 μM): 6 ± 15%

CCCCS(=O)(=O)N[C@@H](Cc1ccc(OCCCCC2CCNCC2)cc1)C(=O)O [tirofiban, reference compound]
increase in IC50 at higher Mg2+ concentrations comparable to that of Example 27 [2]: nor tirofiban shows a comparable increase in IC50
shift of nanodisc-integrin length (NIL) frequency distribution [3]: shift the distribution in a dose-dependent manner
inhibition at 10 µM [4]: 87 ± 9%

CCc1nn2c(=O)cc(N3CCNCC3)nc2s1 [Example 1, 2-ethyl-7-(piperazin-1-yl)-5H-[1,3,4]thiadiazolo[3,2-a]pyrimidin-5-one]
AP5 binding, % of the amount in the presence of eptifibatide [5]: 10±4% and 10%
LIBS1 binding after 30 min, % of the amount in the presence of eptifibatide [5]: 18±2%
PMI-1 binding, % of the amount bound by platelets treated with eptifibatide [5]: 73±9%
effect of Mg2+ on the inhibition of SFLLRN-induced platelet aggregation [6]: much less evident
shift of nanodisc-integrin length (NIL) values / receptor extension ([3]; concentrations up to 100 μM): do not induce receptor extension
IC50 ([7]; Homo sapiens, Platelet): 12 µM
IC50 [7]: 18 µM
inhibition at 10 µM [4]: 22 ± 8%
inhibition at 30 µM ([4]; 30 μM, 5 separate experiments): 38 ± 10%
inhibition at 100 µM ([4]; 100 μM, 5 separate experiments): 70 ± 15%
inhibition at 100 µM ([1]; 100 μM): 5 ± 7%
inhibition at 100 µM [8]: 55 ± 5%

N=C(N)NCCCC[C@@H]1NC(=O)CCSSC[C@@H](C(N)=O)NC(=O)[C@@H]2CCCN2C(=O)[C@H](Cc2c[nH]c3ccccc23)NC(=O)[C@H](CC(=O)O)NC(=O)CNC1=O [eptifibatide, reference compound] ([Mpa][hArg]GDWPC-NH2; disulfide 1-7)
shift of nanodisc-integrin length (NIL) frequency distribution [3]: shift the distribution in a dose-dependent manner
